Key:
[1] = molecular target: Mitogen-activated protein kinase 1 (Homo sapiens) (UniProt P28482); test: Inhibition of human ERK2 assessed as enzyme activity at 1 uM relative to control; parameters: scale not given: the % may be the effect or the level left
[2] = molecular target: Protein kinase C iota type (Homo sapiens) (UniProt P41743); test: Inhibition of human PKCiota assessed as enzyme activity at 1 uM relative to control; parameters: scale not given: the % may be the effect or the level left
[3] = molecular target: Insulin receptor (Homo sapiens) (UniProt P06213); test: Inhibition of human IR assessed as enzyme activity at 1 uM relative to control; parameters: scale not given: the % may be the effect or the level left
[4] = molecular target: Vascular endothelial growth factor receptor 3 (Homo sapiens) (UniProt P35916); test: Inhibition of human Flt4 assessed as enzyme activity at 1 uM relative to control; parameters: scale not given: the % may be the effect or the level left
Chain of Vascular endothelial growth factor receptor 3 (Homo sapiens) (P35916 whole entry): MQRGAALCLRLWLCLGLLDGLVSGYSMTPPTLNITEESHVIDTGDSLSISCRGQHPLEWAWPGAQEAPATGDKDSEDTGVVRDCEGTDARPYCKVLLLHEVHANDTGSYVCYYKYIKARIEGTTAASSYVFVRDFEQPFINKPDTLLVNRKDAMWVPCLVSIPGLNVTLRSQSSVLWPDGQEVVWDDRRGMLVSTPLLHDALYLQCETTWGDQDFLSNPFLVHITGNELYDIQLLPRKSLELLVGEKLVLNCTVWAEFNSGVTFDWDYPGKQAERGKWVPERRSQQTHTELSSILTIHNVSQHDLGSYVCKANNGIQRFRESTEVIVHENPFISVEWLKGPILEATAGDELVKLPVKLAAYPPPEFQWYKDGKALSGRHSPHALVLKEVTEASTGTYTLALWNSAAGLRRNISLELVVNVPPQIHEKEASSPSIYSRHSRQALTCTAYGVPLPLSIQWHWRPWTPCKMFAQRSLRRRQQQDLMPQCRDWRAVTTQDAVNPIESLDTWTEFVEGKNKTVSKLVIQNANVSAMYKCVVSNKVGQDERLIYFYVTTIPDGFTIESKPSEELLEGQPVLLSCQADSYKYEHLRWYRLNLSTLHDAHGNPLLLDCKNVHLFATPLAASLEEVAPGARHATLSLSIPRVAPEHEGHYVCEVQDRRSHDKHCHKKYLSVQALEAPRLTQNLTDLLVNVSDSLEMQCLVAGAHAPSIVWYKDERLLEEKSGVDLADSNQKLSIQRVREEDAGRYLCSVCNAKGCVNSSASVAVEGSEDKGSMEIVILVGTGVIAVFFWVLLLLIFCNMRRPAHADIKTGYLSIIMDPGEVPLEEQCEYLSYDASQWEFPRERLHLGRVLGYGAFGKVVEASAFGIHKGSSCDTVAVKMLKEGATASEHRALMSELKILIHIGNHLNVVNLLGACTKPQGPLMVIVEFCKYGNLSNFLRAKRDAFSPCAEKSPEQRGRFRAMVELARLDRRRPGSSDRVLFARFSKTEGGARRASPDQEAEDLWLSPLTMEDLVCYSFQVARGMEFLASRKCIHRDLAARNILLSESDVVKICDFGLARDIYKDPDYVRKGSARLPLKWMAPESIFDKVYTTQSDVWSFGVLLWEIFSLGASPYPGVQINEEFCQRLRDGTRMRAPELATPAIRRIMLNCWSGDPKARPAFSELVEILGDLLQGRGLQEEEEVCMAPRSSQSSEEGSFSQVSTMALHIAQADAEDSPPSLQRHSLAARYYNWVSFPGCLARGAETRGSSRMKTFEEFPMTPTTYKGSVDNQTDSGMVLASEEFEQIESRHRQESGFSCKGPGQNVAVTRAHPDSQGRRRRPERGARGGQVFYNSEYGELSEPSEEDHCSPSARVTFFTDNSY

[5] = molecular target: Casein kinase II subunit alpha' (Homo sapiens) (UniProt P19784); test: Inhibition of human CK2alpha2 assessed as enzyme activity at 1 uM relative to control; parameters: scale not given: the % may be the effect or the level left
[6] = molecular target: Casein kinase I isoform delta (Homo sapiens) (UniProt P48730); test: Inhibition of human CK1delta assessed as enzyme activity at 1 uM relative to control; parameters: scale not given: the % may be the effect or the level left
[7] = molecular target: SRSF protein kinase 3 (Homo sapiens) (UniProt Q9UPE1); test: Inhibition of human MSSK1 assessed as enzyme activity at 1 uM relative to control; parameters: scale not given: the % may be the effect or the level left
[8] = molecular target: Calcium/calmodulin-dependent protein kinase type 1D (Homo sapiens) (UniProt Q8IU85); test: Inhibition of human CAMK1d assessed as enzyme activity at 1 uM relative to control; parameters: scale not given: the % may be the effect or the level left
Saccharomyces cerevisiae = test: Inhibition of yeast CK1 assessed as enzyme activity at 1 uM relative to control; parameters: scale not given: the % may be the effect or the level left
[9] = molecular target: G protein-coupled receptor kinase 5 (Homo sapiens) (UniProt P34947); test: Inhibition of human GRK5 assessed as enzyme activity at 1 uM relative to control; parameters: scale not given: the % may be the effect or the level left
[10] = molecular target: NUAK family SNF1-like kinase 1 (Homo sapiens) (UniProt O60285); test: Inhibition of human ARK5 assessed as enzyme activity at 1 uM relative to control; parameters: scale not given: the % may be the effect or the level left
Chain of NUAK family SNF1-like kinase 1 (Homo sapiens) (O60285 whole entry): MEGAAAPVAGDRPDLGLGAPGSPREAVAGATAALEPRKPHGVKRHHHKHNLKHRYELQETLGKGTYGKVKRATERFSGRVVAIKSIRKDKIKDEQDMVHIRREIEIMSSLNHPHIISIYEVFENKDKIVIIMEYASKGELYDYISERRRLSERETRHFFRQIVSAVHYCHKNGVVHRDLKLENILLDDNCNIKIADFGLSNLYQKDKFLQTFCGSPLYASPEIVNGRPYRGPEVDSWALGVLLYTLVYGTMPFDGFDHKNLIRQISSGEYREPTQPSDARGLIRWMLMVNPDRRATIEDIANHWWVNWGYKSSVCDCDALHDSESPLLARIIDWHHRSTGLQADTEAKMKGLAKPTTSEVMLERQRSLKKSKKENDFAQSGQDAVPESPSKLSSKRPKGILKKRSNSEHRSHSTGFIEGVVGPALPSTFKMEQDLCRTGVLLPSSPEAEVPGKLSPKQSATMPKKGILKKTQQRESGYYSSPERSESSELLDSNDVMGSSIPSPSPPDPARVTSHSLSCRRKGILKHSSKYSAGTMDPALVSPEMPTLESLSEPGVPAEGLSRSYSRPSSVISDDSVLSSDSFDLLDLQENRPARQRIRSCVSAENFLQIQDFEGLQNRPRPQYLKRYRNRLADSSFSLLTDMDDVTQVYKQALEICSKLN

[11] = molecular target: Protein kinase C alpha type (Homo sapiens) (UniProt P17252); test: Inhibition of human PKCalpha assessed as enzyme activity at 1 uM relative to control; parameters: scale not given: the % may be the effect or the level left
[12] = molecular target: Fibroblast growth factor receptor 4 (Homo sapiens) (UniProt P22455); test: Inhibition of human FGFR4 assessed as enzyme activity at 1 uM relative to control; parameters: scale not given: the % may be the effect or the level left
[13] = molecular target: Protein kinase C delta type (Homo sapiens) (UniProt Q05655); test: Inhibition of human PKCdelta assessed as enzyme activity at 1 uM relative to control; parameters: scale not given: the % may be the effect or the level left
Chain of Protein kinase C delta type (Homo sapiens) (Q05655 whole entry, looked up): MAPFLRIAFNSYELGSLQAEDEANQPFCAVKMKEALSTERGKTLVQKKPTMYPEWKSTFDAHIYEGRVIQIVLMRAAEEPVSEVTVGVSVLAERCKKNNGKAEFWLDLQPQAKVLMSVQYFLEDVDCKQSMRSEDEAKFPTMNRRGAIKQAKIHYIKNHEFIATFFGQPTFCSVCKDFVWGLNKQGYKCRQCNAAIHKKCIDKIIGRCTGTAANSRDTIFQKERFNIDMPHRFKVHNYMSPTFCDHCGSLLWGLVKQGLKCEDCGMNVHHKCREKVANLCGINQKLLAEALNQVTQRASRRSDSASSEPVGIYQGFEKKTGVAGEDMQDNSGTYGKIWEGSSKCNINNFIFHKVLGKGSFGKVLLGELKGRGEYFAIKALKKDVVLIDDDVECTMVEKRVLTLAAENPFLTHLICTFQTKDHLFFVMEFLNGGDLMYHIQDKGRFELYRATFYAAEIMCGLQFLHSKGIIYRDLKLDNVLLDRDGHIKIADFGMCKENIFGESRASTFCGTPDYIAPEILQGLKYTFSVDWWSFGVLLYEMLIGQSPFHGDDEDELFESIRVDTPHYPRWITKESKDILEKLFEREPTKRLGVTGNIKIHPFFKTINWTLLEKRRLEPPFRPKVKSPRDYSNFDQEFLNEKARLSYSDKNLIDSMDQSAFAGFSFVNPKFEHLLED

[14] = molecular target: Angiopoietin-1 receptor (Homo sapiens) (UniProt Q02763); test: Inhibition of human Tie2 assessed as enzyme activity at 1 uM relative to control; parameters: scale not given: the % may be the effect or the level left
[15] = molecular target: Serine/threonine-protein kinase Nek7 (Homo sapiens) (UniProt Q8TDX7); test: Inhibition of human NEK7 assessed as enzyme activity at 1 uM relative to control; parameters: scale not given: the % may be the effect or the level left
[16] = molecular target: Focal adhesion kinase 1 (Homo sapiens) (UniProt Q05397); test: Inhibition of human FAK assessed as enzyme activity at 1 uM relative to control; parameters: scale not given: the % may be the effect or the level left
[17] = molecular target: Cyclin-dependent kinase 2/cyclin E1 (Homo sapiens) (UniProt P24864+P24941); test: Inhibition of human CDK2/cyclinE assessed as enzyme activity at 1 uM relative to control; assay type: protein-complex assay; parameters: scale not given: the % may be the effect or the level left
[18] = molecular target: Macrophage colony-stimulating factor 1 receptor (Homo sapiens) (UniProt P07333); test: Inhibition of human Fms assessed as enzyme activity at 1 uM relative to control; parameters: scale not given: the % may be the effect or the level left
[19] = molecular target: Fibroblast growth factor receptor 2 (Homo sapiens) (UniProt P21802); test: Inhibition of human FGFR2 assessed as enzyme activity at 1 uM relative to control; parameters: scale not given: the % may be the effect or the level left
[20] = molecular target: Calcium/calmodulin-dependent protein kinase type II subunit delta (Homo sapiens) (UniProt Q13557); test: Inhibition of human CAMK2d assessed as enzyme activity at 1 uM relative to control; parameters: scale not given: the % may be the effect or the level left
Chain of Calcium/calmodulin-dependent protein kinase type II subunit delta (Homo sapiens) (Q13557 whole entry): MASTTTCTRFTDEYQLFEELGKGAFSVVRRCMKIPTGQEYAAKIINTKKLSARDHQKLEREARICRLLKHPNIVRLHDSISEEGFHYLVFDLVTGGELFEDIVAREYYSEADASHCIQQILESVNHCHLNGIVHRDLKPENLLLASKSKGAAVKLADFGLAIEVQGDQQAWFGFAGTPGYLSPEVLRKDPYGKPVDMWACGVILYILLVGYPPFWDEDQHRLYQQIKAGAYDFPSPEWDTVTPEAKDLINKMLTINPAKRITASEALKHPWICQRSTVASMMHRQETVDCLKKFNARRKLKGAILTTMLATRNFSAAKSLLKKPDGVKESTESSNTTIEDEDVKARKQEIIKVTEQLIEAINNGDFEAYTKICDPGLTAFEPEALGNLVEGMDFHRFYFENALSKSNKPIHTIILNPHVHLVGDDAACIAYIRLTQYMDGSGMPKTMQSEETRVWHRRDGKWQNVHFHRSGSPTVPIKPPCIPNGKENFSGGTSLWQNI

[21] = molecular target: Serine/threonine-protein kinase MRCK beta (Homo sapiens) (UniProt Q9Y5S2); test: Inhibition of human MRCKbeta assessed as enzyme activity at 1 uM relative to control; parameters: scale not given: the % may be the effect or the level left
[22] = molecular target: Serine/threonine-protein kinase VRK2 (Homo sapiens) (UniProt Q86Y07); test: Inhibition of human VRK2 assessed as enzyme activity at 1 uM relative to control; parameters: scale not given: the % may be the effect or the level left
[23] = molecular target: Macrophage-stimulating protein receptor (Homo sapiens) (UniProt Q04912); test: Inhibition of human Ron assessed as enzyme activity at 1 uM relative to control; parameters: scale not given: the % may be the effect or the level left
[24] = molecular target: Ribosomal protein S6 kinase alpha-2 (Homo sapiens) (UniProt Q15349); test: Inhibition of human Rsk3 assessed as enzyme activity at 1 uM relative to control; parameters: scale not given: the % may be the effect or the level left
Chain of Ribosomal protein S6 kinase alpha-2 (Homo sapiens) (Q15349 whole entry): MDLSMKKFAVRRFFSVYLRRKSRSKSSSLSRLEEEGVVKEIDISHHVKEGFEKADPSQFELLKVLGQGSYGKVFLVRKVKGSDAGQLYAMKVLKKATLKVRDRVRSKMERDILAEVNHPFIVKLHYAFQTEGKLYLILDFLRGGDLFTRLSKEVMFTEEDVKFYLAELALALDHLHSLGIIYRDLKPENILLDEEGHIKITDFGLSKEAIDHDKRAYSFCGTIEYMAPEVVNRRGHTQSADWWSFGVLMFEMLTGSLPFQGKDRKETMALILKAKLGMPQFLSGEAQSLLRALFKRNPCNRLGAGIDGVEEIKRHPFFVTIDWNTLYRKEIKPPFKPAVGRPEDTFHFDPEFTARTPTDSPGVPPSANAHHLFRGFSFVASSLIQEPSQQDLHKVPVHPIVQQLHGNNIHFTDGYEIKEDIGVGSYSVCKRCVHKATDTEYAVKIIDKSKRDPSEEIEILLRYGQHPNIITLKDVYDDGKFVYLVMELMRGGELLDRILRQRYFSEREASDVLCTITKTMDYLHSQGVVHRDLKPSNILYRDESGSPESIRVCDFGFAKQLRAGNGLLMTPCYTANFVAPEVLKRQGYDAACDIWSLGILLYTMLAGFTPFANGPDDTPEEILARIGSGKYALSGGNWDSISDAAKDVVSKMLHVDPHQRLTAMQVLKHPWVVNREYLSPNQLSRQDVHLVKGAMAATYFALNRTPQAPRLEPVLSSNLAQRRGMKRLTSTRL

[25] = molecular target: Serine/threonine-protein kinase pim-2 (Homo sapiens) (UniProt Q9P1W9); test: Inhibition of human Pim-2 assessed as enzyme activity at 1 uM relative to control; parameters: scale not given: the % may be the effect or the level left
[26] = molecular target: Dual specificity protein kinase CLK3 (Homo sapiens) (UniProt P49761); test: Inhibition of human CLK3 assessed as enzyme activity at 1 uM relative to control; parameters: scale not given: the % may be the effect or the level left
[27] = molecular target: Ephrin type-A receptor 4 (Homo sapiens) (UniProt P54764); test: Inhibition of human EphA4 assessed as enzyme activity at 1 uM relative to control; parameters: scale not given: the % may be the effect or the level left
[28] = molecular target: Ephrin type-A receptor 8 (Homo sapiens) (UniProt P29322); test: Inhibition of human EphA8 assessed as enzyme activity at 1 uM relative to control; parameters: scale not given: the % may be the effect or the level left
[29] = molecular target: Proto-oncogene tyrosine-protein kinase ROS (Homo sapiens) (UniProt P08922); test: Inhibition of human Ros assessed as enzyme activity at 1 uM relative to control; parameters: scale not given: the % may be the effect or the level left
[30] = molecular target: Dual specificity protein kinase CLK2 (Homo sapiens) (UniProt P49760); test: Inhibition of human CLK2 assessed as enzyme activity at 1 uM relative to control; parameters: scale not given: the % may be the effect or the level left
[31] = molecular target: Serine/threonine-protein kinase mTOR (Homo sapiens) (UniProt P42345); test: Inhibition of human mTOR assessed as enzyme activity at 1 uM relative to control; parameters: scale not given: the % may be the effect or the level left
[32] = Volume of distribution in mouse; assay type: ADME, organism-based; conditions: in vivo
[33] = Antitumor activity against human LOX cells expressing B-Raf V600E mutant xenografted in nude mouse assessed as tumor growth inhibition at 30 mg/kg qd for 4 days measured on day 3; assay type: functional; conditions: read-out: TGI
[34] = molecular target: Interleukin-1 receptor-associated kinase 1 (Homo sapiens) (UniProt P51617); test: Inhibition of human IRAK1 assessed as enzyme activity at 1 uM relative to control; parameters: scale not given: the % may be the effect or the level left
[35] = Oral bioavailability in mouse at 30 mg/kg; assay type: ADME, organism-based; conditions: in vivo
[36] = molecular target: Muscle, skeletal receptor tyrosine-protein kinase (Homo sapiens) (UniProt O15146); test: Inhibition of human MuSK assessed as enzyme activity at 1 uM relative to control; parameters: scale not given: the % may be the effect or the level left
Chain of Muscle, skeletal receptor tyrosine-protein kinase (Homo sapiens) (O15146 whole entry): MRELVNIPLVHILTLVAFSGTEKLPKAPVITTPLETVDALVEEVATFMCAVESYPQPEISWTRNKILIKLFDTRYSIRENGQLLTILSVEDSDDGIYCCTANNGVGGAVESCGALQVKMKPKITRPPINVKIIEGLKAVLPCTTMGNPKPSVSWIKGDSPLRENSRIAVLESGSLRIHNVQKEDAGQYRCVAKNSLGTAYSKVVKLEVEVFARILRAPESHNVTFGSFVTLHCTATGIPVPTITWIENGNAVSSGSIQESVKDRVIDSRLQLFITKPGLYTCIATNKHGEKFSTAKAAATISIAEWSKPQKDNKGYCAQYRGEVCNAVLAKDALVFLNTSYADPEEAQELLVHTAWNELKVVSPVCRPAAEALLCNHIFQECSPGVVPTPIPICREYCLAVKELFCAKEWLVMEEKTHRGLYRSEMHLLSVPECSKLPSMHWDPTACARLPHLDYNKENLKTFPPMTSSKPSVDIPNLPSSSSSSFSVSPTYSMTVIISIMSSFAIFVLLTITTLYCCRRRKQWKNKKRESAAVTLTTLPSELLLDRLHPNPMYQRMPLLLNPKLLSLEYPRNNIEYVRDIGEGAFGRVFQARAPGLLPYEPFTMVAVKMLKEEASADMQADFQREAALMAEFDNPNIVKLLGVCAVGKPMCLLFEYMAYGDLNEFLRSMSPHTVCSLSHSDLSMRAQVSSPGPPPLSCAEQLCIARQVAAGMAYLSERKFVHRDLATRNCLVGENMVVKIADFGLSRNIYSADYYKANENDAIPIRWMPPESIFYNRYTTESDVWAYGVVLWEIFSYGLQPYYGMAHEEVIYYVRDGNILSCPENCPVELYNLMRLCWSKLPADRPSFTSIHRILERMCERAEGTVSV

[37] = molecular target: CDK2/Cyclin A2 (Homo sapiens) (UniProt P24941+P20248); test: Inhibition of human CDK2/cyclinA assessed as enzyme activity at 1 uM relative to control; assay type: protein-complex assay; parameters: scale not given: the % may be the effect or the level left
[38] = molecular target: Receptor-interacting serine/threonine-protein kinase 2 (Homo sapiens) (UniProt O43353); test: Inhibition of human RIPK2 assessed as enzyme activity at 1 uM relative to control; parameters: scale not given: the % may be the effect or the level left
[39] = molecular target: Mitogen-activated protein kinase 14 (Homo sapiens) (UniProt Q16539); test: Inhibition of human p38alpha assessed as enzyme activity at 1 uM relative to control; parameters: scale not given: the % may be the effect or the level left

Compound: CCCS(=O)(=O)Nc1cccc(Nc2ccc3ncn(C)c(=O)c3c2)c1C#N
- Activity [1]: 97%
- Activity [2]: 102%
- Activity [3]: 99.5%
- Activity [4]: 79.5%
- Activity [5]: 99%
- Activity [6]: 95.5%
- Activity [7]: 115%
- Activity [8]: 116%
- Activity (Saccharomyces cerevisiae): 95.5%
- Activity [9]: 102%
- Activity [10]: 109%
- Activity [11]: 97%
- Activity [12]: 134%
- Activity [13]: 100%
- Activity [14]: 118%
- Activity [15]: 110%
- Activity [16]: 102%
- Activity [17]: 106%
- Activity [18]: 99%
- Activity [19]: 99.5%
- Activity [20]: 94.5%
- Activity [21]: 104%
- Activity [22]: 102%
- Activity [23]: 110%
- Activity [24]: 87%
- Activity [25]: 108%
- Activity [26]: 96%
- Activity [27]: 119%
- Activity [28]: 96%
- Activity [29]: 108%
- Activity [30]: 110%
- Activity [31]: 101%
- Vd [32]: 0.25 L/kg
- inhibition in vivo at 30 mg/kg [33]: 65%
- Activity [34]: 108%
- bioavailability [35]: 60%
- Activity [36]: 95%
- Activity [37]: 98.5%
- Activity [38]: 98%
- Activity [39]: 103%
